According to patent US20070161644A1, “Erastin analogs and uses thereof” (priority 2005, published 2007):

What was measured:
[1] = tested on: BJ-TERT/LT/ST/RAS^V12 cells; test: Cell death in the presence of a pan-caspase inhibitor; assay type: cell-based, human; details: 50 μM inhibitor
[2] = tested on: BJ-TERT/LT/ST/RAS^V12 cells; test: Annexin V-FITC apoptosis assay; assay type: cell-based, human; details: camptothecin-treated (1 μM); untreated 6%
Method: BJ-TERT/LT/ST/RAS^V12 cells were seeded at 1×10^6 cells per dish in 100 mm dishes and allowed to grow overnight. Cells were treated with erastin (5 or 10 μg/ml) for 6, 8 or 11 h. A camptothecin-treated (0.4 μg/ml) control was maintained, treated at the time of seeding for 20 hours. After the treatment, cells were harvested with trypsin/EDTA and washed once with fresh medium containing serum and then twice with phosphate buffered saline. Cells were resuspended in 1× binding buffer (BD Pharmingen) at a concentration of 1×10^6 cells/ml. 100 μl (1×10^5 cells) was incubated with 5 μl of Annexin V-FITC (BD Pharmingen) and propidium iodiode (BD Pharmingen) for 15 minutes in the dark at room temperature. Then 400 μl of the 1× binding buffer was added and the cells analyzed by flow cytometry (Becton-Dickinson). Data were acquired and analyzed using Cellquest software.

[3] = tested on: cleaved, active caspase 3 in BJ-TERT/LT/ST/RAS^V12 cells; test: Western blot for active caspase-3; assay type: cell-based, human; details: western blot of lysates
Method: BJ-TERT/LT/ST/RAS^V12 cells were seeded prior to the experiment at 5×10^5 cells in 60 mm dishes. The cells were treated with 5 μg/ml erastin (9 μM) for 2, 4, 6, 8 or 10 hours. One dish was maintained for camptothecin treatment (0.4 μg/ml for 24 h) as a positive control. Cells were lysed after each time point in lysis buffer (50 mM HEPES KOH pH 7.4, […], 2 mM EDTA, 0.5% Triton X-100, 1.5 mM Na3VO4, 50 mM NaF, 10 mM sodium pyrophosphate, 10 mM sodium beta-glycerophosphate and protease inhibitor tablet (Roche)). Protein content was quantified using a Biorad protein assay reagent. Equal amounts of protein were resolved on 16% SDS-polyacrylamide gel. The electrophoresed proteins were transblotted onto a PVDF membrane, blocked with 5% milk and incubated with anti-active caspase-3 polyclonal antibody (BD Pharmingen) at 1:1500 dilution overnight at 4° C. The membrane was then incubated in anti-rabbit-HRP (Santa Cruz Biotechnology) at 1:3000 dilution for 1 hour and developed with an enhanced chemiluminescence mixture (NEN life science, Renaissance). To test for equivalent loading in each lane, blots were stripped, blocked, and probed with an anti-eIF-4E antibody (BD Transduction laboratories) at 1:1000 dilution.

[4] = tested on: BJ-TERT/LT/ST/RAS^V12 cells relative to BJ-TERT cells; test: Alamar Blue viability assay, tumorigenic versus wild type cells; assay type: cell-based, human
Method: Alamar Blue is reduced by mitochondrial enzyme activity in viable cells, causing both colorimetric and fluorescent changes (Nociari et al., 1998, J. Immunol. Methods 13, 157-167). Cells were seeded at a density of 6000 cells (50 μl) per well in a 384-well black, clear bottom plate using a syringe bulk dispenser (Zymark). 10 μl was removed from a two-fold serially diluted erastin plate (6× final concentration) using a 384 fixed cannula head, making the final concentration 20 μg/ml in the well with highest concentration. The plates were incubated for 24 hours. Alamar Blue (Biosource International) was added to each well by diluting 1:10 and incubated for 16 hours at 37° C. Fluorescence intensity was determined using a Packard Fusion platereader with an excitation filter centered on 535 nm and an emission filter centered on 590 nm. Average percentage inhibition at each concentration was calculated. Error bars indicate one standard deviation.
The effect of erastin or erastin B on cell viability was measured using Alamar Blue as described in Example 3 in both tumorigenic BJ-TERT/LT/ST/RAS^V12 (BJELR) cells and wild type BJ-TERT (BJEH) cells. In this example, cell viability was measured at 1, 2, and 3 days after treatment with erastin or erastin B (data for days 1 and 3 not shown). Average percentage inhibition at each concentration was measured.
The effect on cell viability of each of the two isomers of Compound 20 was measured using the Alamar Blue assay described in Example 3 in both tumorigenic BJ-TERT/LT/ST/RAS^V12 cells and wild type BJ-TERT cells. Average percentage inhibition at each concentration was measured.
The effect on cell viability of erastin or Compound 21 was measured using the Alamar Blue assay as described in Example 3 in both tumorigenic BJ-TERT/LT/ST/RAS^V12 cells and in wild type BJ-TERT cells. Average percentage inhibition at each concentration was measured. […]

[5] = tested on: VDAC isoforms, Prohibitin and Ribophorin; test: Pull-down with immobilized erastin derivatives; assay type: binding, human; details: pull-down from lysates, mitochondrial extract or MonoQ fractions
Method: Pull-down assays using immobilized erastin and cell lysates were used in an initial attempt to identify erastin binding partners inside a cell. Initial pull-down experiments were performed with HEK293, BJEH and BJELR whole cell lysates. In those experiments, a methyl-amino derivative of erastin (ERA-A6) was immobilized to Affigel 10 and incubated with lysate under standard pull-down conditions. The beads were washed and either eluted with 100 μM erastin or 0.8% N-lauroylsarcosine (sarkosyl). The eluates were subjected to mass spectrometric analysis.
Since Prohibitin and the VDAC isoforms are all mitochondrial proteins, Applicants enriched potential erastin targets by isolating mitochondria from cell lysates. The isolated mitochondrial extracts were then used in erastin pull-down experiments. In those erastin pull-down experiments with the mitochondrial extracts, Prohibitin, VDAC and Ribophorin were also identified by Western blot. […] The pull-downs were performed with 0.25 mg total protein of the mitochondrial extract. The beads were incubated with the extracts for 1.5 h at 4° C. and then washed several times. Proteins bound to the immobilized Erastin derivatives were eluted with 50 μL of 0.8% N-lauroylsarcosine solution. […]
Ribophorin and Prohibitin are rather acidic proteins with a calculated PI of 5.57 (Prohibitin) and 5.96 (Ribophorin I). […]

In the case of `COC(=O)CC(NC(=O)OC(C)(C)C)C(=O)CF` (centres unmarked) [Boc-Asp(Ome)-fluoromethyl ketone], the “block of compound-induced cell death” value [1] is reported as “partially blocked cell death induced by CPT, but not by erastin”.
In the case of `CC[C@@]1(O)C(=O)OCc2c1cc1n(c2=O)Cc2cc3ccccc3nc2-1` [Camptothecin, reference compound], the “percentage of cells in M1 region (Annexin V staining)” value [2] is reported as 38% and the “activated caspase 3” value [3] is reported as “harbor activated caspase 3”.
With `CCOc1ccccc1-n1c(C(C)N2CCN(C(=O)COc3ccc(CN)cc3)CC2)nc2ccccc2c1=O` (centres unmarked) [Compound 19] the “lethality in BJ-TERT/LT/ST/RAS^V12 (BJELR) cells compared to BJ-TERT (BJEH) cells” value [4] was “selective lethality” and the “binding of cellular proteins to the immobilized compound” value [5] was “Prohibitin and Ribophorin were identified as binding to the Erastin beads”.
